Read-outs that look alike come from different tables or passages of the source.
Columns and labels:
[1] = biological target: T1, Drosophila OR98a (Drosophila melanogaster, UniProt Q9VAZ3); test: Calcium ion fluorescence (GCaMP6) assay, OR98a stable HEK293 cell line; type: cell-based; settings: for OR98a response (VUAA1-normalized) at 1 μM / OR98a response (VUAA1-normalized) at 10 μM / OR98a response (VUAA1-normalized) at 100 μM: OR98a cell line; for OR98a response (VUAA1-normalized) at 1 μM: VOC concentration 1 μM; for OR98a response (VUAA1-normalized) at 10 μM: VOC concentration 10 μM; for OR98a response (VUAA1-normalized) at 100 μM: VOC concentration 100 μM
T1 construct: expressed in transfected cells
T1 sequence (Q9VAZ3 1-397): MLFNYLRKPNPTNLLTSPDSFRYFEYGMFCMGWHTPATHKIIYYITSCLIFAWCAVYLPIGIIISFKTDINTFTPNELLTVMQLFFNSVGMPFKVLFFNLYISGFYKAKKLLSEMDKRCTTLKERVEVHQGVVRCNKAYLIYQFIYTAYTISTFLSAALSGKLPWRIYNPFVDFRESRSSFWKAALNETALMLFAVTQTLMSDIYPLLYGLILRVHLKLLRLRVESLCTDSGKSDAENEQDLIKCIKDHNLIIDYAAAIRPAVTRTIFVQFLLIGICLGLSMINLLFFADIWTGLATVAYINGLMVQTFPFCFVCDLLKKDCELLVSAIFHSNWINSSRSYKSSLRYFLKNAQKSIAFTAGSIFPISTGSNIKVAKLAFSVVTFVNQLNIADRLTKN
T1 sequence (Q9VNB5 1-486 partner): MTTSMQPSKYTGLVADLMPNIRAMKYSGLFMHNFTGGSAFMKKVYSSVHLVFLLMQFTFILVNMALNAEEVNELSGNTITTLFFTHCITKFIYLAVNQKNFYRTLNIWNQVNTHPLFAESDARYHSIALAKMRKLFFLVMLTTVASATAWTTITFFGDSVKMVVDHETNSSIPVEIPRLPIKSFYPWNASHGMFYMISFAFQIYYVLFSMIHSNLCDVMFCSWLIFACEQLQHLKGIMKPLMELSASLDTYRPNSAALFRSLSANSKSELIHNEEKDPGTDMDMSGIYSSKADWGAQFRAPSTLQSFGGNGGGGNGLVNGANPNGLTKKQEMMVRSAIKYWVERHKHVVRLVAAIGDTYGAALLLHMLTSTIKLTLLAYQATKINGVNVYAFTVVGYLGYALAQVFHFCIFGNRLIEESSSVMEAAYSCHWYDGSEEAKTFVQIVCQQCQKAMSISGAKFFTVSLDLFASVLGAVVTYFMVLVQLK
Method: (§1) These VUAA1 normalized ∆F values were used to compare the different receptors and ligands.
(§2) The concentration-dependent effect of the reference ligands on their cognate cell lines was examined in more detail. Twelve different ligand concentrations were measured on each cell line in an overall 0.01 μM to 100 μM concentration range with 5 repetitions with three technical replicates each time.
(§3) Twelve thousand to 18,000 cells were plated into each well of a black wall, transparent bottom 384-well microplate (Greiner) 48 h or 72 h before the measurements and were simultaneously treated with 1 μg/mL doxycycline. […] The plate has 24 columns, thus we could record responses in up to eight different cell lines in each plate. On the day of the experiment, the growth medium was replaced with 20 µL assay buffer/well (140 mM NaCl, 5 mM KCl, 2 mM CaCl2, 1 mM MgCl2, 5 mM HEPES-Na, 20 mM glucose, pH 7.3, 340 mOsm). […] Baseline fluorescence (F0) was recorded for 5 s, after which 7 µL VOC buffer (140 mM NaCl, 5 mM KCl, 2 mM CaCl2, 1 mM MgCl2, 5 mM HEPES-Na, 31 mM glucose, 0.1% DMSO, pH 7.3, 340 mOsm) was injected into each well in one row and the fluorescence response was recorded for an additional 30 s, at a rate of one read/sec. VOC solutions (VOC buffer with 4× concentration of the final measured VOC concentration, 9 µL/well was injected) were measured on the same wells in a second round with the same protocol. Each individual concentration of a specific VOC sample was recorded in three wells for the same cell line on the same microplate. The raw data were exported in xls file format, F0 and FMAX values, and the fluorescence intensity changes (∆F) were calculated in Excel (Microsoft) (Supplementary file Data summary.xlsx) using the following equation: ΔF=FMAX-F0/F0 (see also Fig. 1C). On each plate, we recorded the response of each cell line to 50 µM VUAA1. The average of these ∆F values of each cell line were used to calculate the VUAA1-normalized values for the rest of the plate, by dividing VOC response ∆F values by the average VUAA1 response ∆F value of the corresponding OR cell line. Each VOC-OR combination was measured three times as technical replicates. […] The average of these replicates were used as one ∆F and VUAA1-normalized ∆F in the following analysis.
(§4) In the next rows we tested the reference VOCs (or other VOCs known to activate the corresponding cell lines), in order to test if all cell lines are responsive. The remaining rows were used to test VOCs with unknown effect.
(§5) The recorded FMAX, F0, ∆F, VUAA1-normalized ∆F values, as well as the OR name, the name of the tested sample, and the final concentration for each well were copied into supplementary file Data summary.xlsx, that was used to summarize all the plates recorded. Here, the averages of the measurements were calculated for each receptor-VOC-concentration combination.

[2] = biological target: T2, Drosophila OR47a (Drosophila melanogaster, UniProt P81921); test: Calcium ion fluorescence (GCaMP6) assay, OR47a stable HEK293 cell line; type: cell-based; settings: for OR47a response (VUAA1-normalized) at 1 μM / OR47a response (VUAA1-normalized) at 10 μM / OR47a response (VUAA1-normalized) at 100 μM / Average response: OR47a cell line; for OR47a response (VUAA1-normalized) at 1 μM: VOC concentration 1 μM; for OR47a response (VUAA1-normalized) at 10 μM: VOC concentration 10 μM; for OR47a response (VUAA1-normalized) at 100 μM: VOC concentration 100 μM; for Average response: mean of biological replicates
T2 construct: expressed in transfected cells
T2 sequence (P81921 1-385): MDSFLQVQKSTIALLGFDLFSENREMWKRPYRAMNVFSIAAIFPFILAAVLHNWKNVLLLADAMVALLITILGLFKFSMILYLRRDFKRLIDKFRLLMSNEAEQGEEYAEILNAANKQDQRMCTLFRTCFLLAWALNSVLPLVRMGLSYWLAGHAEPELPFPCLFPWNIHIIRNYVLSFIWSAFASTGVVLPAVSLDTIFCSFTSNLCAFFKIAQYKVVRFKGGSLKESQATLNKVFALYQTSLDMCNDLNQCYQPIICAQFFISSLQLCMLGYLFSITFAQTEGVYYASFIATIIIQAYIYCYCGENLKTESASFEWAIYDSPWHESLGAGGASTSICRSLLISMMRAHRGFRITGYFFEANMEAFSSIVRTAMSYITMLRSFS
T2 sequence (Q9VNB5 1-486 partner): T1 sequence (Q9VNB5 1-486 partner)
Method: as §1, §2, §3, §4, §5

[3] = HEK293, read-out: Average response
[4] = ligand concentration 1 (unit not given), threshold 0.05, below shown as 0
[5] = ligand concentration 10 (unit not given), threshold 0.05, below shown as 0
[6] = ligand concentration 100 (unit not given), threshold 0.05, below shown as 0
[7] = HEK293, read-out: OR47a Average response (VUAA1-normalized)
[8] = HEK293, read-out: OR98a response (VUAA1-normalized response)
[9] = HEK293, read-out: OR47a response (VUAA1-normalized response)
[10] = ligand concentration 1 (unit not given), 0.05 threshold, values below shown as 0
[11] = ligand concentration 10 (unit not given), 0.05 threshold, values below shown as 0
[12] = ligand concentration 100 (unit not given), 0.05 threshold, values below shown as 0

Structure (SMILES) | activation at 1 µM [1, 3] | activation at 10 µM [1, 3] | activation at 100 µM [1, 3] | OR98a response (VUAA1-normalized) at 1 μM [1] | OR98a response (VUAA1-normalized) at 10 μM [1] | OR98a response (VUAA1-normalized) at 100 μM [1] | DF norm AVERAGE OR98a [1, 4] | DF norm AVERAGE OR98a [1, 5] | DF norm AVERAGE OR98a [1, 6] | OR47a response (VUAA1-normalized) at 1 μM [2] | OR47a response (VUAA1-normalized) at 10 μM [2] | OR47a response (VUAA1-normalized) at 100 μM [2] | Average response ([2]; odorant cc. 1 µM) | Average response ([2]; odorant cc. 10 µM) | Average response ([2]; odorant cc. 100 µM) | DF norm AVERAGE OR47a [2, 4] | DF norm AVERAGE OR47a [2, 5] | DF norm AVERAGE OR47a [2, 6] | activation at 1 µM [1, 8] | activation at 10 µM [1, 8] | further results
Cc1ccc(C)cc1 [p-xylene] | 0% | 2.51% | 4% | 0.00 | 0.00 | 0.00 | 0 | 0 | 0 | 0.00 | 0.00 | 0.00 | 0.00 | 0.00 | 0.0271 | 0 | 0 | 0 | – | – | –
COC(=O)c1ccccc1O [methyl salicylate] | 3% | 1.79% | 4% | 0.00 | 0.00 | 0.00 | 0 | 0 | 0 | 0.11 | 0.00 | 0.14 | 0.11 | 0.00759 | 0.14 | 0.1126 | 0 | 0.1364 | – | – | activation at 1 µM [2, 7]: 11%; activation at 10 µM [2, 7]: 1%; activation at 100 µM [2, 7]: 14%
CC1=CCC2CC1C2(C)C (stereo not drawn) [alpha-pinene] | 0% | 0% | 0% | – | – | – | 0 | 0 | 0 | – | – | – | 0.04 | 0.00 | 0.0468 | 0 | 0 | 0 | 0% | 0% | activation at 100 µM [1, 8]: 0%; activation at 1 µM [2, 9]: 0%; activation at 10 µM [2, 9]: 0%; activation at 100 µM [2, 9]: 0%
Cc1ccc(C(C)C)cc1 [p-cymene] | 0% | 4% | 3.65% | 0.00 | 0.00 | 0.00 | 0 | 0 | 0 | 0.00 | 0.00 | 0.00 | 0.00 | 0.00 | 0.00 | 0 | 0 | 0 | – | – | –
Cc1ccccc1 [toluene] | 0% | 4% | 3.33% | 0.00 | 0.00 | 0.00 | – | – | – | 0.00 | 0.00 | 0.00 | 0.00 | 0.0267 | 0.00 | – | – | – | – | – | DF norm AVERAGE OR98a [1, 10]: 0; DF norm AVERAGE OR98a [1, 11]: 0; DF norm AVERAGE OR98a [1, 12]: 0; DF norm AVERAGE OR47a [2, 10]: 0; DF norm AVERAGE OR47a [2, 11]: 0; DF norm AVERAGE OR47a [2, 12]: 0
CCCCOC(C)=O [butyl acetate] | 3.31% | 0% | 4.29% | – | – | – | 0 | 0 | 0 | – | – | – | – | – | – | – | – | – | 0% | 0% | activation at 100 µM [1, 8]: 0%
